Experimental data from patent US10118930B2, “Piperidinylpyrazolopyrimidinones and their use” (BAYER PHARMA AKTIENGESELLSCHAFT, priority 2015, dated 2018).
pIC50: −log10 of the molar value. Where a name gives a salt, the structure may show the parent alone.

Each compound was assayed on clot lysis (fibrinolysis) in diluted human citrated plasma, tPA-induced (assay: Plasma-based clot lysis assay (5%)). Settings: human citrated platelet-poor plasma 5%, fibrinogen 3 μM, CaCl2 10 mM, tPA 0.2 nM, 37° C., OD at 405 nm.
Assay type: biochemical
Method in brief: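 Compounds added to 5% platelet-poor citrated human plasma with 3 μM fibrinogen in 20 mM HEPES, 150 mM NaCl, 0.01% Brij, pH 7. Clotting and lysis started with 10 mM CaCl2 and 0.2 nM tPA at 37° C. IC50 derived by comparing time courses with a blank control reaction.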

Row | Structure (SMILES) | pIC50
1 | CCC(=O)c1cnn2c(C3CCNCC3)cc(=O)[nH]c12 [Example 371, 7-(piperidin-4-yl)-3-propanoylpyrazolo[1,5-a]pyrimidin-5(4H)-one hydrochloride] | 7.52
2 | O=c1cc(C2CCNCC2)n2ncc(-c3nc(-c4cccc(Cl)c4)cs3)c2[nH]1 [Example 163, 3-[4-(3-chlorophenyl)-1,3-thiazol-2-yl]-7-(piperidin-4-yl)pyrazolo[1,5-a]pyrimidin-5 (4H)-one hydrochloride] | 7.40
3 | O=c1cc(C2CCNCC2)n2ncc(-c3noc(-c4ccc(Cl)cc4)n3)c2[nH]1 [Example 233, 3-[5-(4-chlorophenyl)-1,2,4-oxadiazol-3-yl]-7-(piperidin-4-yl)pyrazolo[1,5-a]pyrimidin-5(4H)-one hydrochloride] | 7.44
4 | CCOC(=O)c1cnn2c(C3CCNCC3)cc(=O)[nH]c12 [Example 16, Ethyl 5-oxo-7-(piperidin-4-yl)-4,5-dihydropyrazolo[1,5-a]pyrimidine-3-carboxylate hydrochloride] | 7.96
5 | CC(C)(C)c1ccc(-c2nnc(-c3cnn4c(C5CCNCC5)cc(=O)[nH]c34)o2)cc1 [Example 179, 3-[5-(4-tert-butylphenyl)-1,3,4-oxadiazol-2-yl]-7-(piperidin-4-yl)pyrazolo[1,5-a]pyrimidin-5 (4H)-one hydrochloride] | 7.43
6 | COCc1nn2c(C3CCNCC3)cc(=O)[nH]c2c1-c1ccc(OC)cc1 [Example 3, 2-(Methoxymethyl)-3-(4-methoxyphenyl)-7-(piperidin-4-yl)pyrazolo[1,5-a]pyrimidin-5 (4H)-one hydrochloride] | 7.48
7 | CC(C)CNC(=O)c1c(-c2ccccc2)nn2c(C3CCNCC3)cc(=O)[nH]c12 [Example 44, trifluoroacetate] | 7.64
8 | CCCc1noc(-c2cnn3c(C4CCNCC4)cc(=O)[nH]c23)n1 [Example 34, 7-(Piperidin-4-yl)-3-(3-propyl-1,2,4-oxadiazol-5-yl)pyrazolo[1,5-a]pyrimidin-5(4H)-one hydrochloride] | 7.92
9 | O=c1cc(C2CCNCC2)n2ncc(-c3nc(-c4cccc([N+](=O)[O-])c4)no3)c2[nH]1 [Example 205, 3-[3-(3-nitrophenyl)-1,2,4-oxadiazol-5-yl]-7-(piperidin-4-yl)pyrazolo[1,5-a]pyrimidin-5(4H)-one hydrochloride] | 7.46
10 | O=c1cc(C2CCNCC2)n2ncc(-c3nc(-c4ccc(C(F)(F)F)c(F)c4)no3)c2[nH]1 [Example 134, 3-{3-[3-Fluoro-4-(trifluoromethyl)phenyl]-1,2,4-oxadiazol-5-yl}-7-(piperidin-4-yl)pyrazolo[1,5-a]pyrimidin-5(4H)-one hydrochloride] | 7.37
11 | COc1ccc(-c2cnn3c(C4CCNCC4)cc(=O)[nH]c23)cc1OC [Example 54, 3-(3,4-Dimethoxyphenyl)-7-(piperidin-4-yl)pyrazolo[1,5-a]pyrimidin-5(4H)-one hydrochloride] | 7.74
12 | COc1ccc(-c2noc(-c3cnn4c(C5CCNCC5)cc(=O)[nH]c34)n2)cc1F [Example 122, 3-[3-(3-Fluoro-4-methoxyphenyl)-1,2,4-oxadiazol-5-yl]-7-(piperidin-4-yl)pyrazolo[1,5-a]pyrimidin-5(4H)-one hydrochloride] | 7.46
13 | O=c1cc(C2CCNCC2)n2ncc(-c3nc(-c4ccccc4F)no3)c2[nH]1 [Example 159, 3-[3-(2-fluorophenyl)-1,2,4-oxadiazol-5-yl]-7-(piperidin-4-yl)pyrazolo[1,5-a]pyrimidin-5(4H)-one hydrochloride] | 7.64
14 | Cn1cncc1-c1nnc(-c2cnn3c(C4CCNCC4)cc(=O)[nH]c23)o1 [Example 168, 3-[5-(1-methyl-1H-imidazol-5-yl)-1,3,4-oxadiazol-2-yl]-7-(piperidin-4-yl)pyrazolo[1,5-a]pyrimidin-5(4H)-one hydrochloride] | 7.48
15 | O=C(c1cnn2c(C3CCNCC3)cc(=O)[nH]c12)N1CCC(O)CC1 [Example 95, 3-[(4-hydroxypiperidin-1-yl)carbonyl]-7-(piperidin-4-yl)pyrazolo[1,5-a]pyrimidin-5(4H)-one hydrochloride] | 7.37
16 | CCc1nc(-c2cnn3c(C4CCNCC4)cc(=O)[nH]c23)no1 [Example 262, 3-(5-ethyl-1,2,4-oxadiazol-3-yl)-7-(piperidin-4-yl)pyrazolo[1,5-a]pyrimidin-5(4H)-one hydrochloride] | 7.64
17 | O=c1cc(C2CCNCC2)n2ncc(-c3nnc(Cc4ccc(Cl)cc4)o3)c2[nH]1 [Example 284, 3-[5-(4-chlorobenzyl)-1,3,4-oxadiazol-2-yl]-7-(piperidin-4-yl)pyrazolo[1,5-a]pyrimidin-5(4H)-one hydrochloride] | 7.70

Row | Structure (SMILES) | pIC50
18 | O=c1cc(C2CCNCC2)n2ncc(-c3nc(-c4cccc(F)c4)no3)c2[nH]1 [Example 112, 3-[3-(3-Fluorophenyl)-1,2,4-oxadiazol-5-yl]-7-(piperidin-4-yl)pyrazolo[1,5-a]pyrimidin-5 (4H)-one hydrochloride] | 7.54
19 | O=C(c1cnn2c(C3CCNCC3)cc(=O)[nH]c12)N1CC(F)(F)C1 [Example 326, 3-[(3,3-difluoroazetidin-1-yl)carbonyl]-7-(piperidin-4-yl)pyrazolo[1,5-a]pyrimidin-5 (4H)-one hydrochloride] | 7.92
20 | NC(=S)c1cnn2c(C3CCNCC3)cc(=O)[nH]c12 [Example 287, 5-oxo-7-(piperidin-4-yl)-4,5-dihydropyrazolo[1,5-a]pyrimidine-3-carbothioamide hydrochloride] | 7.43
21 | CC(C)(c1ccccc1)c1noc(-c2cnn3c(C4CCNCC4)cc(=O)[nH]c23)n1 [Example 223, 3-[3-(2-phenylpropan-2-yl)-1,2,4-oxadiazol-5-yl]-7-(piperidin-4-yl)pyrazolo[1,5-a]pyrimidin-5(4H)-one hydrochloride] | 7.51
22 | CCC(=O)N1CCN(C(=O)c2cnn3c(C4CCNCC4)cc(=O)[nH]c23)CC1 [Example 98, 7-(piperidin-4-yl)-3-[(4-propanoylpiperazin-1-yl)carbonyl]pyrazolo[1,5-a]pyrimidin-5(4H)-one hydrochloride] | 7.05
23 | O=c1cc(C2CCNCC2)n2ncc(-c3nnc(C4CCC4)o3)c2[nH]1 [Example 294, 3-(5-cyclobutyl-1,3,4-oxadiazol-2-yl)-7-(piperidin-4-yl)pyrazolo[1,5-a]pyrimidin-5 (4H)-one hydrochloride] | 7.43
24 | COc1ccc(C(C)(C)c2nc(-c3cnn4c(C5CCNCC5)cc(=O)[nH]c34)no2)cc1 [Example 242, 3-{5-[2-(4-methoxyphenyl)propan-2-yl]-1,2,4-oxadiazol-3-yl}-7-(piperidin-4-yl)pyrazolo[1,5-a]pyrimidin-5(4H)-one hydrochloride] | 7.70
25 | O=c1cc(C2CCNCC2)n2ncc(-c3nnc(Cc4ccccc4)o3)c2[nH]1 [Example 180, 3-(5-benzyl-1,3,4-oxadiazol-2-yl)-7-(piperidin-4-yl)pyrazolo[1,5-a]pyrimidin-5(4H)-one hydrochloride] | 7.46
26 | Cc1nn2c(C3CCNCC3)cc(=O)[nH]c2c1C(=O)N1CCc2ccccc21 [Example 412, 3-(2,3-dihydro-1H-indol-1-ylcarbonyl)-2-methyl-7-(piperidin-4-yl) pyrazolo[1,5-a] pyrimidin-5(4H)-one hydrochloride] | 7.48
27 | O=c1cc(C2CCNCC2)n2ncc(-c3nc(-c4ccc(OC(F)(F)F)cc4)no3)c2[nH]1 [Example 115, 7-(Piperidin-4-yl)-3-{3-[4-(trifluoromethoxy)phenyl]-1,2,4-oxadiazol-5-yl}pyrazolo[1,5-a]pyrimidin-5(4H)-one hydrochloride] | 7.57
28 | CN(CC(F)(F)F)C(=O)c1cnn2c(C3CCNCC3)cc(=O)[nH]c12 [Example 103, N-methyl-5-oxo-7-(piperidin-4-yl)-N-(2,2,2-trifluoroethyl)-4,5-dihydropyrazolo[1,5-a]pyrimidine-3-carboxamide hydrochloride] | 7.46
29 | O=c1cc(C2CCNCC2)n2nc3c(c2[nH]1)CCC3 [Example 30, 4-(Piperidin-4-yl)-1,7,8,9-tetrahydro-2H-cyclopenta[3,4]pyrazolo[1,5-a]pyrimidin-2-one hydrochloride] | 6.70
30 | COCC1CCCN(C(=O)c2c(C)nn3c(C4CCNCC4)cc(=O)[nH]c23)C1 (stereo not shown) [Example 402, 3-{[3-(methoxymethyl)piperidin-1-yl]carbonyl}-2-methyl-7-(piperidin-4-yl) pyrazolo[1,5-a] pyrimidin-5(4H)-one hydrochloride] | 7.40
31 | CC(F)(F)COC(=O)c1cnn2c(C3CCNCC3)cc(=O)[nH]c12 [Example 463, 2,2-difluoropropyl 5-oxo-7-(piperidin-4-yl)-4,5-dihydropyrazolo[1,5-a]pyrimidine-3-carboxylate hydrochloride] | 7.29
32 | Cc1nn2c(C3CCNCC3)cc(=O)[nH]c2c1C(=O)OC(C)C [Example 366, Propan-2-yl 2-methyl-5-oxo-7-(piperidin-4-yl)-4,5-dihydropyrazolo[1,5-a]pyrimidine-3-carboxylate hydrochloride] | 7.57
33 | CC1(C)CCN(C(=O)c2cnn3c(C4CCNCC4)cc(=O)[nH]c23)C1 [Example 462, 3-[(3,3-dimethylpyrrolidin-1-yl)carbonyl]-7-(piperidin-4-yl)pyrazolo[1,5-a]pyrimidin-5 (4H)-one hydrochloride] | 7.47
34 | O=c1cc(C2CCNCC2)n2ncc(-c3noc(Cc4ccccc4)n3)c2[nH]1 [Example 228, 3-(5-benzyl-1,2,4-oxadiazol-3-yl)-7-(piperidin-4-yl)pyrazolo[1,5-a]pyrimidin-5(4H)-one hydrochloride] | 7.48
